From ChEMBL document CHEMBL4507319 (2021)

How the values were obtained:
[1] = test system: ALK tyrosine kinase receptor (Homo sapiens), Q9UM73 [L1196M]; conditions: Compound concentration 1000.0 nM
[2] = molecular target: T1, NUAK family SNF1-like kinase 1 (Homo sapiens) (UniProt O60285); conditions: Compound concentration 1000.0 nM
T1 sequence (whole entry): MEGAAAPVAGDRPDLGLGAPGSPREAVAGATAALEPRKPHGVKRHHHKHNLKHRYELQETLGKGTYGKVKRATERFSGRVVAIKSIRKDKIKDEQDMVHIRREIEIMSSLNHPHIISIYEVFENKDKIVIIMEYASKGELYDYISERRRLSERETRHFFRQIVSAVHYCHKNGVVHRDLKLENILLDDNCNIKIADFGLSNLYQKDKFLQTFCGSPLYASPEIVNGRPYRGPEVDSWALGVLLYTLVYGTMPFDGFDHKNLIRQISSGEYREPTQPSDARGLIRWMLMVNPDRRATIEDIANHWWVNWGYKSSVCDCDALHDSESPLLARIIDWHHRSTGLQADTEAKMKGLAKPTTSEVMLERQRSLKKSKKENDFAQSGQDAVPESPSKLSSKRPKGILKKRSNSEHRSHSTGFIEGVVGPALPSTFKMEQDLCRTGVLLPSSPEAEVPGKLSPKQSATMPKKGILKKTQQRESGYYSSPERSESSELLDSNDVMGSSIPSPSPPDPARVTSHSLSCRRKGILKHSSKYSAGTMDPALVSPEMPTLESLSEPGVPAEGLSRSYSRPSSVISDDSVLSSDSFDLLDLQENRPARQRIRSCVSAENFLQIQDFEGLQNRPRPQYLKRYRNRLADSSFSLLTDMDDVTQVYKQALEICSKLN

[3] = molecular target: Cyclin-dependent kinase-like 1 (Homo sapiens) (UniProt Q00532); conditions: Compound concentration 1000.0 nM
Chain of Cyclin-dependent kinase-like 1 (Homo sapiens) (Q00532 whole entry, canonical isoform): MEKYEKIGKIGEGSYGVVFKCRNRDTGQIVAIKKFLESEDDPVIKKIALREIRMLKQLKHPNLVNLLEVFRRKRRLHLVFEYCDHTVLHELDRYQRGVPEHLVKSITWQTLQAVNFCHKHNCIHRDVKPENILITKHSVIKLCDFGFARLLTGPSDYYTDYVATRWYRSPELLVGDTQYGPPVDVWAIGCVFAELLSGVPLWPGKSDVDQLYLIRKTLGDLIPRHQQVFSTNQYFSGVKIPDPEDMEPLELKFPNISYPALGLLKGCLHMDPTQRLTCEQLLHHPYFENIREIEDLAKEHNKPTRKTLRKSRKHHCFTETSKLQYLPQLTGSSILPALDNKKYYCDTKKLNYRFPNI

[4] = molecular target: Casein kinase I isoform epsilon (Homo sapiens) (UniProt P49674); conditions: Compound concentration 1000.0 nM
Chain of Casein kinase I isoform epsilon (Homo sapiens) (P49674 whole entry, looked up, canonical isoform): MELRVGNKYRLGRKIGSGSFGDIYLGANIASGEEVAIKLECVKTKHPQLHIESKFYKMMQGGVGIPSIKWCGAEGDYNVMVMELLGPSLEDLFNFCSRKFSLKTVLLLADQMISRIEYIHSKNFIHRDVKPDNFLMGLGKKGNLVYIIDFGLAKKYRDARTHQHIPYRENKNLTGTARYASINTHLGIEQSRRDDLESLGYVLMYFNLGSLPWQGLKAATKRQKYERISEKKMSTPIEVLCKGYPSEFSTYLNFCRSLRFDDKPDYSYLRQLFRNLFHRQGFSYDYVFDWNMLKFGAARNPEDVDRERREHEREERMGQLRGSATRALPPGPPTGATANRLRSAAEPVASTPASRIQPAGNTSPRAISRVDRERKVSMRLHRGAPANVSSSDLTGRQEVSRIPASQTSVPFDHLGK

[5] = test system: Fibroblast growth factor receptor 3 (Homo sapiens), P22607 [G697C]; conditions: Compound concentration 1000.0 nM
Chain of Fibroblast growth factor receptor 3 (Homo sapiens), P22607 [G697C] (P22607 whole entry G697C): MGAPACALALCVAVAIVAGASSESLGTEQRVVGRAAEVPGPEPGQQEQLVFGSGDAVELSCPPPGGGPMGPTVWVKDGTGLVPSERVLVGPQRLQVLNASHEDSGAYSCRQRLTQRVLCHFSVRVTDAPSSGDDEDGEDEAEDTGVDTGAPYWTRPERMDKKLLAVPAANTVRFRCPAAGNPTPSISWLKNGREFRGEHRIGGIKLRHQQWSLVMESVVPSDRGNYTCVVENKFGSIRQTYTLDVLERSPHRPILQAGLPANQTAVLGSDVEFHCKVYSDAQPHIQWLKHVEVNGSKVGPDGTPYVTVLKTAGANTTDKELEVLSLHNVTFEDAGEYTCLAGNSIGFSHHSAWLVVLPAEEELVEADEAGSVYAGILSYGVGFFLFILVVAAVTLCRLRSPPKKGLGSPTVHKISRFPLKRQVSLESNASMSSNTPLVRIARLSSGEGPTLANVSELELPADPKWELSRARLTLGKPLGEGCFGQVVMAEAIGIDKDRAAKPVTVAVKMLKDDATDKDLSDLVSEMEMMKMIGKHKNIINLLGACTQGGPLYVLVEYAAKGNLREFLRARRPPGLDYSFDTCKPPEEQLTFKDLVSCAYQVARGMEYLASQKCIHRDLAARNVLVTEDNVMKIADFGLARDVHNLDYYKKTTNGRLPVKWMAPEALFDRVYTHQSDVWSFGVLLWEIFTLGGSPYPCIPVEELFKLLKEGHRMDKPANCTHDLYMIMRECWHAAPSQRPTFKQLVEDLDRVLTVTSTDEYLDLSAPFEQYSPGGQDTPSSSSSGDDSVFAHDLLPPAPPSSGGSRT

[6] = molecular target: T2, Rhodopsin kinase GRK7 (Homo sapiens) (UniProt Q8WTQ7); conditions: Compound concentration 1000.0 nM
T2 sequence (whole entry): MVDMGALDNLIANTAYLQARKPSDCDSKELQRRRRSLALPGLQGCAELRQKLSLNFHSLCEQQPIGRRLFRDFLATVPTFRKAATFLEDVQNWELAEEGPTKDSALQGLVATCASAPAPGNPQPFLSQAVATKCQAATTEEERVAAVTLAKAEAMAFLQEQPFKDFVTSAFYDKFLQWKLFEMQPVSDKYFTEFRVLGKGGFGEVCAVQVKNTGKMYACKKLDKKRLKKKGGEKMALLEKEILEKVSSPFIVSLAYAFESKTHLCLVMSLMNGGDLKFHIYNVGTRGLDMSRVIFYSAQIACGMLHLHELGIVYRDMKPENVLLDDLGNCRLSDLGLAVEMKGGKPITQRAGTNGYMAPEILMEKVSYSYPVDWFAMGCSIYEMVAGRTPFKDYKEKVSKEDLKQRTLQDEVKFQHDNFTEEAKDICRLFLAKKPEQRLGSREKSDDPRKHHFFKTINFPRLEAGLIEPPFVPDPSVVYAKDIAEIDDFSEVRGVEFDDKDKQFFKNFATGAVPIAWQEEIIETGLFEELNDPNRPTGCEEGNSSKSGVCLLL

[7] = molecular target: T3, Myosin light chain kinase (Homo sapiens) (UniProt Q32MK0); conditions: Compound concentration 1000.0 nM
T3 sequence (whole entry): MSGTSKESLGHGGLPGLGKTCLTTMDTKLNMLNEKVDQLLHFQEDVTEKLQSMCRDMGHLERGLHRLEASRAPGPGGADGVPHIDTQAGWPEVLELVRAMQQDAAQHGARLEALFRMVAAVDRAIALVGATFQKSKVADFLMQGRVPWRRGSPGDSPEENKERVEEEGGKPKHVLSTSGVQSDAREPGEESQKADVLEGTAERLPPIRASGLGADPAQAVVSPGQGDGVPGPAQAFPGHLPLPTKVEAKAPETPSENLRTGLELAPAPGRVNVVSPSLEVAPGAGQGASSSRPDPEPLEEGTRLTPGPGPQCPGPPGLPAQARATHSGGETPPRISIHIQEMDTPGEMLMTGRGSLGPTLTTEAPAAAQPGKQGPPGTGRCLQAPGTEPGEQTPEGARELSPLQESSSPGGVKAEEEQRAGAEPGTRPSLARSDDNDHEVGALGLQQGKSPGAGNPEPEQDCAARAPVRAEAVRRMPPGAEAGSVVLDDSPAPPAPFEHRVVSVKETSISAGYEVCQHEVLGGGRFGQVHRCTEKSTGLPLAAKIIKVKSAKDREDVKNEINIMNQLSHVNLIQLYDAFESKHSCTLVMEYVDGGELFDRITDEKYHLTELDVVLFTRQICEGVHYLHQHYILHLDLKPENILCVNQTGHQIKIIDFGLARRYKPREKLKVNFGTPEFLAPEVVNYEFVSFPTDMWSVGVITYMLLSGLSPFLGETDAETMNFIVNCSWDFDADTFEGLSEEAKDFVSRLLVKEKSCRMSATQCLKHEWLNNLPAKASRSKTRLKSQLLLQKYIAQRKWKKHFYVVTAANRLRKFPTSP

[8] = molecular target: Serine/threonine-protein kinase Nek4 (Homo sapiens) (UniProt P51957); conditions: Compound concentration 1000.0 nM
Chain of Serine/threonine-protein kinase Nek4 (Homo sapiens) (P51957 whole entry, looked up): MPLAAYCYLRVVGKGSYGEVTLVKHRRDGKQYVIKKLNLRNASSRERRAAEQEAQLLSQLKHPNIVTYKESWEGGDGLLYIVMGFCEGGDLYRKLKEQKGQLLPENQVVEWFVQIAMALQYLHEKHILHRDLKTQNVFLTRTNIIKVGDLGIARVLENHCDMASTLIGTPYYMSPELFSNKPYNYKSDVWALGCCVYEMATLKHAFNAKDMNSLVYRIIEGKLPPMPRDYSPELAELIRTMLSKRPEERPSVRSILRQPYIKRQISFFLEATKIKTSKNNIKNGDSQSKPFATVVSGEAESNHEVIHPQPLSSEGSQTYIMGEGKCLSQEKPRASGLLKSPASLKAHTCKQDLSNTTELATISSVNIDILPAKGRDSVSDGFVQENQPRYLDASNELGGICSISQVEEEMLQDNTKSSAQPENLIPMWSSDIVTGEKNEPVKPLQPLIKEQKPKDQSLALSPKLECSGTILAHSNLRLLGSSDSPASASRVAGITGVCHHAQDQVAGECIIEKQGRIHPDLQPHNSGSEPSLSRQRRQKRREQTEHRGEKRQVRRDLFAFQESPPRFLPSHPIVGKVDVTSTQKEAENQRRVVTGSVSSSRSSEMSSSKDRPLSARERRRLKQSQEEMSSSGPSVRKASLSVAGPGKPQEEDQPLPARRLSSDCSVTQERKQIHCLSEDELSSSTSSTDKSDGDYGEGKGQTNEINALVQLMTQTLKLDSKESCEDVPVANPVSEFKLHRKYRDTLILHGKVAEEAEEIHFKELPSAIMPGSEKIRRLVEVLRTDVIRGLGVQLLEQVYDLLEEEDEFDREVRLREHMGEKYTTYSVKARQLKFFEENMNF

[9] = molecular target: Serine/threonine-protein kinase N2 (Homo sapiens) (UniProt Q16513); conditions: Compound concentration 1000.0 nM
Chain of Serine/threonine-protein kinase N2 (Homo sapiens) (Q16513 whole entry, looked up): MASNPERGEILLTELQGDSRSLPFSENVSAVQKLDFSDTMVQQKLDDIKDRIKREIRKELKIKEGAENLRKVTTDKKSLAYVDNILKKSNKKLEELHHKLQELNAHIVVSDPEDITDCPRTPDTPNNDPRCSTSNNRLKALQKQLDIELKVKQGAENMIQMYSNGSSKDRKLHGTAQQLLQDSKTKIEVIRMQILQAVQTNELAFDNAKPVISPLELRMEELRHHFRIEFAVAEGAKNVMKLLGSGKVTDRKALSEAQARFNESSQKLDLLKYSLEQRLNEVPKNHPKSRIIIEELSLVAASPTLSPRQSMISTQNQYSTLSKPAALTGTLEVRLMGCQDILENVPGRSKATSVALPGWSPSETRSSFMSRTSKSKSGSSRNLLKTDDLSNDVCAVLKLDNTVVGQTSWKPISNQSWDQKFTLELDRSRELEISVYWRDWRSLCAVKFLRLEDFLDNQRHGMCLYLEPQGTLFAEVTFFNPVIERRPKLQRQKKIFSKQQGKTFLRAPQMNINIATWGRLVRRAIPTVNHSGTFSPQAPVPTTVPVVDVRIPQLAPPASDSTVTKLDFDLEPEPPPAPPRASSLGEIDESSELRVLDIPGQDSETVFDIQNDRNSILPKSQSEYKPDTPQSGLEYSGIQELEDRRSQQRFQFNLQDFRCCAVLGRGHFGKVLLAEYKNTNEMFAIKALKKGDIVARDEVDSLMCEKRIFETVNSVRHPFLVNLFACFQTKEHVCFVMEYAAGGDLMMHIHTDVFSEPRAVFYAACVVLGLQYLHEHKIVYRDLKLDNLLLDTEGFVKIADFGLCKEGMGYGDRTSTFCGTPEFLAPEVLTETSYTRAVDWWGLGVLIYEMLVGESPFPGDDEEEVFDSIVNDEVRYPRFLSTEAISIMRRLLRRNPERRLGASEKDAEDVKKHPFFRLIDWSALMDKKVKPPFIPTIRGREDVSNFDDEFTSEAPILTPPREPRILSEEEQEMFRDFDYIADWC

[10] = molecular target: Ribosomal protein S6 kinase alpha-2 (Homo sapiens, UniProt Q15349); conditions: Compound concentration 1000.0 nM
Chain of Ribosomal protein S6 kinase alpha-2 (Q15349 whole entry): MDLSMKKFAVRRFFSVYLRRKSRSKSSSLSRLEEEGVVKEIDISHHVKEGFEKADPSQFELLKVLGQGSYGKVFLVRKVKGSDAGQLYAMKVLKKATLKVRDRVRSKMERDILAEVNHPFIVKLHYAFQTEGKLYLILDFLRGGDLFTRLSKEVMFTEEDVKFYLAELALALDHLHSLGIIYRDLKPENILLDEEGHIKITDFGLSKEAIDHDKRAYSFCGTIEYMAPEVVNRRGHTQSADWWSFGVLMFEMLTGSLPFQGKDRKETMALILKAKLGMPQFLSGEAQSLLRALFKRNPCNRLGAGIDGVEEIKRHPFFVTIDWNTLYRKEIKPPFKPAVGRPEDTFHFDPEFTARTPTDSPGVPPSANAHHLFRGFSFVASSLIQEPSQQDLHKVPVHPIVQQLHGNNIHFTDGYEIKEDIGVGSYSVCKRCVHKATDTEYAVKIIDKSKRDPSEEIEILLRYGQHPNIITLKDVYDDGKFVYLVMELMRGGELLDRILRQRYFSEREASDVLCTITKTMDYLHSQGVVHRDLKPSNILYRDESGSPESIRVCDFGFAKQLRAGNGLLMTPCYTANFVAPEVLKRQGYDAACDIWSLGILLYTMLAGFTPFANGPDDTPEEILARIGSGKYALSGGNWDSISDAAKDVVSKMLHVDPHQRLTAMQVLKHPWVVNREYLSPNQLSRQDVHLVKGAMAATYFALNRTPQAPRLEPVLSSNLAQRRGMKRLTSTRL

[11] = molecular target: Alpha-1A adrenergic receptor (Homo sapiens) (UniProt P35348); conditions: Compound concentration 10.0 uM
Chain of Alpha-1A adrenergic receptor (Homo sapiens) (P35348 whole entry): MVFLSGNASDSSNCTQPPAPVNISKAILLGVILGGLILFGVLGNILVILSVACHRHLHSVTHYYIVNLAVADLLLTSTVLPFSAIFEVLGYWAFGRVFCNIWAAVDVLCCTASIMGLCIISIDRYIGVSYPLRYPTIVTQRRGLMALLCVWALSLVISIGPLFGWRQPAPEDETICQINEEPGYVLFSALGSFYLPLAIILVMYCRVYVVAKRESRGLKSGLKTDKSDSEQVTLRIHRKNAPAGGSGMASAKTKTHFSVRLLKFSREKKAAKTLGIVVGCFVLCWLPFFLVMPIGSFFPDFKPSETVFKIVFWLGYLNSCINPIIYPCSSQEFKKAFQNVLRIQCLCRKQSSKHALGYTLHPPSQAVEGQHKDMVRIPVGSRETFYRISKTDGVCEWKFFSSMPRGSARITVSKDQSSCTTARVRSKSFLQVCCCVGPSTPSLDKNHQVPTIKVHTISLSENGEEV

Row | SMILES | residual activity [1] | residual activity [2] | residual activity [3] | residual activity [4] | residual activity [5] | residual activity [6] | residual activity [7] | residual activity [8] | residual activity [9] | residual activity [10] | inhibition [11]
1 | CCc1ccccc1C(=O)Nc1n[nH]c2c(C)c(F)c(C3C(C#N)=C(C)N(C)C(C)=C3C#N)cc12 [BAY-3827] | 83% | 33% | 87% | 100% | 74% | 54% | 100% | 100% | 100% | 0% | 6.85%
2 | CC1=C(C#N)C(c2ccc3c(c2)c(NC(=O)c2ccccc2C)nn3C)C(C#N)=C(C)N1 [BAY-974] | 80% | 95% | 72% | 100% | 93% | 70% | 86% | 100% | 100% | 83% | 1.96%
